Reference: US20190365681A1, “TREATMENT OF CANCER WITH COMBINATIONS OF RXR AGONISTS AND THYROID HORMONES” (Io Therapeutics, Inc., priority 2015, published 2019)
Entries after “also recorded” stand apart in the source; their conditions may differ. Where two headings read alike, the source gives them in different places.

Key:
[1] = cited from earlier work
T47D [2] = assay: In vitro growth inhibition, soft-agar; format: cell-based
Protocol: (§1) The inhibition of growth was tested in a variety of cancer cell lines.
(§2) All cell lines were obtained from American Type Culture Collection (ATCC, Manassas, Va.) and culture media and supplements were supplied by ATCC and Invitrogen (Carlsbad, Calif.). The ATP assay was performed using […]-GLO Luminescent Cell Viability Assay Kit from Promega (Madison, Wis.) which allows ATP to be roughly quantified based on the […] emitted by the cells. Luminescence was recorded using VICTOR-22 1420 (Perkin Elmer, Waltham, Mass.).
(§3) The soft-agar coupled thymidine incorporation assay is used to determine the ability of cells to form colonies through invasion into agar matrix. A bottom feeder layer of cells was composed of 0.6% NUSIEVE GTG agarose (Cambrex, East Rutherford, N.J.), D-MEM with low glucose, 2 mM L-glutamine, and 15% charcoal/dextran-treated FBS. Test cells were seeded in the top soft-agar layer containing 0.3% NUSIEVE GTG agarose, D-MEM (low glucose), 2 mM L-glutamine, and 15% charcoal/dextran-treated FBS at a density of 10,000-20,000 cells per well. Test cells were labeled with [^3H] thymidine at 50 nM. Labeled cells were collected and counted as described above.
(§4) For the soft-agar colony formation assay, cells were cultured in 6-well plates containing two agar layers with growth medium. The bottom feeder layer contained 0.5% DIFCO Noble Agar (Becton Dickinson & Co., East Rutherford, N.J.), D-MEM with low glucose and 2 mM L-glutamine, and 15% charcoal/dextran-treated FBS. Test cells were seeded in the top soft-agar layer containing 0.3% agarose, D-MEM (low glucose), 2 mM L-glutamine, and 15% charcoal/dextran-treated FBS at a density of 10,000 cells per well. After treatment with drugs, cell colonies were counted under a light microscope.
(§5) Efficacy is the maximal inhibition of cell growth at the maximal concentration used in the studies. ND means the results were not determined.

H446 = assay: In vitro growth inhibition, soft-agar; format: cell-based
Protocol: as §1, §2, §3, §4, §5

FXR/RXR = target: T1, FXR/RXR (Homo sapiens, UniProt P19793); assay: Permissive heterodimer transactivation assay, CV-1 cells, 3x(IBABP/IRI)-tk-Luc; format: cell-based; settings: 20 hr; relative to GW4064
T1 construct: expressed in transfected cells; host or cells: CV-1
T1 sequence (Q96RI1 whole entry partner): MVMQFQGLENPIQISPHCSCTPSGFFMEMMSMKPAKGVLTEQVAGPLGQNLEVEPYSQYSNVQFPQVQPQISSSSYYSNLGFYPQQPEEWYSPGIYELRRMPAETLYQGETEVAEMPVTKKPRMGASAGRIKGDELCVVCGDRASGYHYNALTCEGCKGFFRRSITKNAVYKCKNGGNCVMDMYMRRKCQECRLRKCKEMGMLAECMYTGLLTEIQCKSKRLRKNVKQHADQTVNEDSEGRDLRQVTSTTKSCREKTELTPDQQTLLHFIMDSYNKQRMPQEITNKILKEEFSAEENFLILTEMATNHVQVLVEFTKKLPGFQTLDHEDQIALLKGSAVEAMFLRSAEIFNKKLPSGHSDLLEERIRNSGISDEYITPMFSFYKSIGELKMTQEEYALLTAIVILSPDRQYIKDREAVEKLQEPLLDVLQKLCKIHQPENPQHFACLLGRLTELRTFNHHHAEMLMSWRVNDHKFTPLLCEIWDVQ
T1 sequence (P19793 whole entry): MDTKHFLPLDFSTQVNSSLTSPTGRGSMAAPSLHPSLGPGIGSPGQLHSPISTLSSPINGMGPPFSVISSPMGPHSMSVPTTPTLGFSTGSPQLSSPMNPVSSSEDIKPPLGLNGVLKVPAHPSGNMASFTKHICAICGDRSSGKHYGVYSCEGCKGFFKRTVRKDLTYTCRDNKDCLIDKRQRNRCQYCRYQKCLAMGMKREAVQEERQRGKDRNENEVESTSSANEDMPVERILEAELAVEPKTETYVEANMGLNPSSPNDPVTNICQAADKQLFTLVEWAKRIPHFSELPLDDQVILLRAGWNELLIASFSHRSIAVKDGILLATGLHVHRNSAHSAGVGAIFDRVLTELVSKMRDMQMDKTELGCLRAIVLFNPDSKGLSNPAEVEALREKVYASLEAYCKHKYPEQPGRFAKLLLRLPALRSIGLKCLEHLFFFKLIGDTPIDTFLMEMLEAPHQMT
From the text: (§6) For PPARγ: CV-1 cells were transfected with 3×(rAOX/DR1)-tk-Luc reporter gene and an expression vector for PPARγ. For FXR:CV-1 cells were transfected with 3×(IBABP/IRI)-tk-Luc reporter gene and vectors for FXR and RXRα. For LXR:CV-1 cells were transfected with 3×(PLTP/LXRE)-tk-Luc reporter gene with vectors for LXRα or LXRβ. For Nurr1: COS7 cells were transfected with 3×NBRE-tk-luc reporter gene and full length Nurr-1 with or without full-length RXRα plasmid. […] Luciferase data were normalized to co-transfected β-gal activity. Luciferase activity was expressed as percent of maximal activity obtained using specific agonists. Rosiglitazone (PPARγ), GW4064 (FXR), T0901317 (LXR).

HL-60 = assay: In vitro growth inhibition, [3H] thymidine incorporation; format: cell-based
Protocol: as §1, §2
(§7) The thymidine incorporation assay allows for specific detection of [^3H]-labeled thymidine (Perkin-Elmer) incorporated into newly synthesized DNA. Labeled cells were collected and their DNA was harvested on to a fiberglass filter using MLR24 Cell Harvester (Brandel, Geithersburg, Md.). The amount of incorporated [^3H] thymidine was determined by scintillation counting using Trilux-1450 Microbeta Counter (Perkin-Elmer).
as §5

H-82 = assay: as above; format: cell-based
Protocol: as §1, §2, §7, §5

[3] = test system: refractory malignancies (progressive, solid tumors); assay: Phase I/II study of IRX4204 in refractory malignancies; format: in vivo, Humans
From the text: Data was collected for 18 patients with progressive, solid tumors.

RXRα = RXRα (Homo sapiens, UniProt P19793); settings: CV-1 cells, 20 hours, luciferase
Sequence of RXRα (P19793 whole entry, the tested form may be a part): as the sequence (P19793 whole entry) above
Protocol: To determine whether a RXR agonist can mediate its effects via RXRα receptor homodimers, RXRβ receptor homodimers, RXRγ receptor homodimers, or any combination thereof, or the corresponding RAR/RXR heterodimers, receptor-mediated transactivation assays were performed. For transactivation assays assessing RXR homodimer signaling, CV-1 cells were transfected with 1) an expression construct including a full length RXRα, RXRβ, or RXRγ; and 2) a rCRBPII/RXRE-tk-Luc reporter construct that included RXR homodimer-specific RXRE/DR1 responsive element linked to a luciferase gene. For transactivation assays assessing RAR/RXR heterodimer signaling, CV-1 cells were transfected with 1) an expression construct comprising a fusion protein including an estrogen receptor (ER) DNA binding domain linked to the ligand binding domain of RARα, RARβ, or RARγ and 2) a ERE-tk-Luc reporter construct that included an estrogen receptor responsive element linked to a luciferase gene. […] Data are mean values±SE from five independent experiments.

RXRγ = target: T2, RXRγ (Homo sapiens, UniProt P48443); assay: RXR homodimer transactivation assay (rCRBPII/RXRE-tk-Luc reporter) in CV-1 cells; format: cell-based
T2 construct: an expression construct including a full length RXRα, RXRβ, or RXRγ; expressed in transfected cells; host or cells: CV-1
T2 sequence (P48443 whole entry): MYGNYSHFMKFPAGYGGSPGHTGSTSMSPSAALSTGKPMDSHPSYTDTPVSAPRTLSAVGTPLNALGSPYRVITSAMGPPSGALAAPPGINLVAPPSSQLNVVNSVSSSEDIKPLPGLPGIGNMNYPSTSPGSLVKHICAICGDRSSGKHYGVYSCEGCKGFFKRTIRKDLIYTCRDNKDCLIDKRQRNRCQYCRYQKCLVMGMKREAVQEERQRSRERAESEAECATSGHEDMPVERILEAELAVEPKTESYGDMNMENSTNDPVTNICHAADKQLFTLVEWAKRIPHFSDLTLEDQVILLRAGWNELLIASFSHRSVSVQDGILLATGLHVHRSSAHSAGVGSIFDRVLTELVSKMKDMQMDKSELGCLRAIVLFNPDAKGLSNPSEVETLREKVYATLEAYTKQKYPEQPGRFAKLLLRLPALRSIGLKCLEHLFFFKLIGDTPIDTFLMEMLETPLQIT
Protocol: To determine whether a RXR agonist can mediate its effects via RXRα receptor homodimers, RXRβ receptor homodimers, RXRγ receptor homodimers, or any combination thereof, or the corresponding RAR/RXR heterodimers, receptor-mediated transactivation assays were performed. For transactivation assays assessing RXR homodimer signaling, CV-1 cells were transfected with 1) an expression construct including a full length RXRα, RXRβ, or RXRγ; and 2) a rCRBPII/RXRE-tk-Luc reporter construct that included RXR homodimer-specific RXRE/DR1 responsive element linked to a luciferase gene. For transactivation assays assessing RAR/RXR heterodimer signaling, CV-1 cells were transfected with 1) an expression construct comprising a fusion protein including an estrogen receptor (ER) DNA binding domain linked to the ligand binding domain of RARα, RARβ, or RARγ and 2) a ERE-tk-Luc reporter construct that included an estrogen receptor responsive element linked to a luciferase gene. The ER-RAR fusion proteins provided an accurate readout of only the transfected ER-RAR. […] Data are mean values±SE from five independent experiments.

LXRα/RXR = assay: Permissive heterodimer transactivation assay, CV-1 cells, 3x(PLTP/LXRE)-tk-Luc; format: cell-based; settings: 20 hr; relative to T0901317
From the text: as §6

LXRβ/RXR = assay: as above; format: cell-based; settings: 20 hr; relative to T0901317
From the text: as §6

MCF-7 = assay: In vitro growth inhibition, ATP assay ([…]-GLO); format: cell-based
Protocol: as §1, §2, §5

A-427 = assay: In vitro growth inhibition, ATP assay ([…]-GLO); format: cell-based
Protocol: as §1, §2, §5

HT-3 = assay: In vitro growth inhibition, ATP assay ([…]-GLO); format: cell-based
Protocol: as §1, §2, §5

HuT 78 = assay: In vitro growth inhibition, ATP assay ([…]-GLO); format: cell-based
Protocol: as §1, §2, §5

ME-180 = assay: In vitro growth inhibition, ATP assay ([…]-GLO); format: cell-based
Protocol: as §1, §2, §5

SK-BR-3 = assay: In vitro growth inhibition, ATP assay ([…]-GLO); format: cell-based
Protocol: as §1, §2, §5

SW403 = assay: In vitro growth inhibition, ATP assay ([…]-GLO); format: cell-based
Protocol: as §1, §2, §5

T47D [4] = assay: In vitro growth inhibition, ATP assay ([…]-GLO); format: cell-based
Protocol: as §1, §2, §5

U937 = assay: In vitro growth inhibition, ATP assay ([…]-GLO); format: cell-based
Protocol: as §1, §2, §5

SiHa = assay: In vitro growth inhibition, ATP assay ([…]-GLO); format: cell-based
Protocol: as §1, §2, §5

Nurr1/RXR = Nurr1/RXR (Homo sapiens, UniProt P19793); assay: Permissive heterodimer transactivation assay, COS7 cells, 3xNBRE-tk-luc; format: cell-based; settings: Nurr-1 with RXRα
Sequence of Nurr1/RXR (P43354 whole entry partner): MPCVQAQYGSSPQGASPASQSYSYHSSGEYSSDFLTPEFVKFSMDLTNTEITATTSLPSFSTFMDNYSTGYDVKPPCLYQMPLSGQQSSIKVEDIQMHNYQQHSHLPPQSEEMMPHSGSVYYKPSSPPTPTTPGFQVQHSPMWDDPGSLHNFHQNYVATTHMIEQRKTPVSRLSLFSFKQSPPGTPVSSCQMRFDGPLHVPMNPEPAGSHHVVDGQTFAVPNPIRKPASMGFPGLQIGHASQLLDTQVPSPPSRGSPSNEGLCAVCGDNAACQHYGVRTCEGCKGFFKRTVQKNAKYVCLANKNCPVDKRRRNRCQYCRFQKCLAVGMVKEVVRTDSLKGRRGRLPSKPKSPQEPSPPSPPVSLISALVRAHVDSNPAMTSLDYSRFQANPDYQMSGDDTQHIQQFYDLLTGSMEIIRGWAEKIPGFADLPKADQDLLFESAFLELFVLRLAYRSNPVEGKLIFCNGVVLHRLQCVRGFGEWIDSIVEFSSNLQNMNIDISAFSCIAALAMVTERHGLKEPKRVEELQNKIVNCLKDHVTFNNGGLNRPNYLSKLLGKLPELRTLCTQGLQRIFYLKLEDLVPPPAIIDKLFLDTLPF
Sequence of Nurr1/RXR (P19793 whole entry): as the sequence (P19793 whole entry) above
From the text: as §6

SW48 = assay: In vitro growth inhibition, cell counting; format: cell-based; settings: SW48, Colon, maximal inhibition at 1 μM
[5] = Homo sapiens, Breast ER-positive

SMILES: C=C(c1ccc(C(=O)O)cc1)c1cc2c(cc1C)C(C)(C)CCC2(C)C [bexarotene, 4-[1-(3,5,5,8,8-pentamethyl-6,7-dihydronaphthalen-2-yl)ethenyl]benzoic acid]
- Cmax ([1]; dose of 400 mg/m^2/d, read-out: Cmax in the blood (estimated)): ~8 µM
- Cmax ([1]; lower dose 225 mg/m^2/d, read-out: Cmax (estimated)): ~2 µM

SMILES: CC(/C=C/[C@@H]1C[C@]1(C)c1ccc2c(c1)C(C)(C)CCC2(C)C)=C\C(=O)O [IRX4204, 3,7-dimethyl-6(S),7(S)-methano,7-[1,1,4,4-tetramethyl-1,2,3,4-tetrahydronaphth-7-yl]2(E),4(E) heptadienoic acid]
- IC50 (T47D [2]; [5]): 12.6 nM
- Efficacy (Conc.) (T47D [2]; maximal inhibition at 10 μM): 97%
- Efficacy (Conc.) (H446; H446, Soft-Agar, maximal inhibition at 1 μM): 44%
- IC50 (H446; Homo sapiens, NCI-H446, H446, Small Cell Lung Cancer, Soft-Agar): 17 nM
- activation of FXR/RXR heterodimer (FXR/RXR): not to transactivate; also recorded: does not activate
- Efficacy (Conc.) (HL-60; HL-60, thymidine incorporation, maximal inhibition at 1 μM): 94%
- IC50 (HL-60; Homo sapiens, HL-60, Leukemia, [H3] Thymidine Incorporation): 15 nM
- Efficacy (Conc.) (H-82; H-82, thymidine incorporation, maximal inhibition at 1 μM): 72%
- IC50 (H-82; Homo sapiens, NCI-H82, H-82, Small Cell Lung Cancer, [H3] Thymidine Incorporation): 3.6 nM
- patients who did not exhibit tumor progression for at least four months ([3]; 18 patients with progressive, solid tumors, 9 patients): 50%
- adverse events recorded ([3]; patients, once-daily oral 3, 6, 12, 24 mg/m^2, minimum four weeks): triglyceride elevation and hypothyroidism
- serious adverse events related to IRX4204 ([3]; patients, once-daily oral 3, 6, 12, 24 mg/m^2, minimum four weeks, 18 patients): no serious adverse events considered possibly or probably related to IRX4204
- Efficacy (% of 1 μM IRX4204) RXRα (RXRα): 100 % of 1 μM IRX4204
- Efficacy (% of 1 μM IRX4204) RXRγ (RXRγ): 0.09 ± 0.01 100 % of 1 μM IRX4204
- activation of LXRα/RXR heterodimer (LXRα/RXR): not to transactivate; also recorded: does not activate
- activation of LXRβ/RXR heterodimer (LXRβ/RXR): not to transactivate; also recorded: does not activate
- IC50 (MCF-7; Homo sapiens, MCF7, MCF-7, Breast ER-positive, ATP): 52 nM
- Efficacy (Conc.) (MCF-7; MCF-7, ATP, maximal inhibition at 1 μM): 52%
- Efficacy (Conc.) (A-427; A-427, ATP, maximal inhibition at 10 μM): 50%
- IC50 (A-427; Homo sapiens, A-427, Non-Small Cell Lung Cancer, ATP): 7.7 nM
- Efficacy (Conc.) (HT-3; HT-3, ATP, maximal inhibition at 1 μM): 68%
- IC50 (HT-3; Homo sapiens, HT-3, Cervical, ATP): < 1000 nM
- IC50 (HuT 78; Homo sapiens, HuT78, HuT 78, Cutaneous T-Cell Lymphoma, ATP, 50% of maximal inhibition): 1.6 nM
- Efficacy (Conc.) (HuT 78; HuT 78, ATP, maximal inhibition at 1 μM): 81%
- IC50 (ME-180; Homo sapiens, ME-180, Cervical, ATP): 7 nM
- Efficacy (Conc.) (ME-180; ME-180, ATP, maximal inhibition at 1 μM): 80%
- IC50 (SK-BR-3; Homo sapiens, SK-BR-3, Breast ER-negative, ATP): 3 nM
- Efficacy (Conc.) (SK-BR-3; SK-BR-3, ATP, maximal inhibition at 1 μM): 74%
- IC50 (SW403; Homo sapiens, SW-403, SW403, Colon, ATP): 0.78 nM
- Efficacy (Conc.) (SW403; SW403, ATP, maximal inhibition at 1 μM): 35%
- IC50 (T47D [4]; [5]): 75 nM
- Efficacy (Conc.) (T47D [4]; maximal inhibition at 1 μM): 97%
- IC50 (U937; Homo sapiens, U-937, U937, Leukemia, ATP): 0.73 nM
- Efficacy (Conc.) (U937; U937, ATP, maximal inhibition at 1 μM): 94%
- IC50 (SiHa; Homo sapiens, Cervical): 47 nM
- Efficacy (Conc.) (SiHa; maximal inhibition at 1 μM): 41%
- activation of Nurr1/RXR permissive heterodimer (Nurr1/RXR): selectively activates
- Efficacy (Conc.) (SW48): 60%
